# Measurements reported in paper PMC2830424, “The Anopheles gambiae Odorant Binding Protein 1 (AgamOBP1) Mediates Indole Recognition in the Antennae of Female Mosquitoes” (PLoS ONE, 2010).
# How the values were obtained:
# [1] = target: T1, AgamOBP1 (Odorant Binding Protein 1) (Anopheles gambiae, UniProt Q8T6S0); experiment: fluorescent reporter dye of the displacement assay (no Kd reported); parameters: gene OBP-1; recombinant OBP1 (r-OBP1)
# T1 sequence (Q8T6S0 20-144): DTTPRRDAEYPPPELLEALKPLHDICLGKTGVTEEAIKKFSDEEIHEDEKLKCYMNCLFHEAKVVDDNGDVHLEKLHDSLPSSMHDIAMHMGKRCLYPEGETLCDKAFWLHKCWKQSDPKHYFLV
# [2] = target: T1, AgamOBP1 (Odorant Binding Protein 1); experiment: fluorescence displacement of 1-NPN (screening assay); parameters: gene OBP-1; recombinant OBP1 (r-OBP1)
# Source text: fluorescence displacement of 1-NPN (screening assay) on AgamOBP1 (Odorant Binding Protein 1) | 3-methyl indole (skatole) […] also bound to r-OBP1 but with an apparently lower affinity
# [3] = target: T1, AgamOBP1 (Odorant Binding Protein 1); experiment: 3H-indole scintillation proximity (Ni-NTA FlashPlate) binding; confirmed by 1-NPN fluorescence displacement; parameters: gene OBP-1; purified 6xHis tagged r-OBP1
# Source text: 3H-indole scintillation proximity (Ni-NTA FlashPlate) binding; confirmed by 1-NPN fluorescence displacement on AgamOBP1 (Odorant Binding Protein 1) | Binding curve of ^3H indole to r-OBP1 in Ni-NTA FlashPlates.
smiles,measurement,setting,value
"c1ccc(Nc2cccc3ccccc23)cc1 [1-NPN, N-Phenyl-1-Naphthylamine]",fluorescent reporter dye displacement,[1],increasing concentrations of indole displaced more 1-NPN dye from the AgamOBP1 binding pocket
Cc1c[nH]c2ccccc12 [3-methyl indole],fluorescence displacement of 1-NPN (screening assay),[2],3-methyl indole (skatole) [...] also bound to r-OBP1 but with an apparently lower affinity
c1ccc2[nH]ccc2c1 [indole],Kd,[3],2300 nM
